Source: patent US4301177A, “(3-Methyl-2-butenyl)propanedioic acid mono (1,2-diphenylhydrazide) and salts thereof” (Istituto de Angeli S.p.A., priority 1979, dated 1981)
Where a name gives a salt, the structure may show the parent alone.

What was measured:
[1] = tested on: rats; assay: Effect on arthritis induced in rats by Freund's adjuvant (Table II); assay type: in vivo, male Sprague-Dawley rats; conditions: day 20
[2] = tested on: mice; assay: Analgesic activity, hot plate test in mice (Table III); assay type: in vivo, male Swiss mice
Method: (§1) In the present study the test compounds were administered perorally by means of a stomach tube as an aqueous suspension in 5% acacia gum at a constant volume of 10 ml/kg to male Swiss mice and male Sprague-Dawley rats. Control rats and mice were given a corresponding volume of the aqueous suspension medium. The results were statistically evaluated by Dunnett's test (C. V. Dunnett.: J.A. Stat. Ass., 40, 1096, 1955).
The analgesic activity was evaluated in mice by the hot plate test according to Janssen and Jageneau (J.Pharm.Pharmac., 9, 381, 1957).
The plate temperature was kept constant at 55° C.; the reaction time was determined before and 30, 60, 90 and 120 minutes after oral administration of the test compound. Average values after administration of the test compound were compared to those obtained before treatment.

[3] = tested on: rats; assay: Analgesic-anti-inflammatory activity, Randall and Selitto, brewer's yeast inflamed paw in rats (Table IV); assay type: in vivo, male Sprague-Dawley rats
Method: as §1
4. Analgesic-anti-inflammatory activity
The analgesic-anti-inflammatory activity was evaluated in rats by the method of Randall and Selitto (Arch. Int. Pharmacodyn., 111, 409, 1957), using an analgesimeter to measure the minimum load that must be applied to a rat's hind paw to elicit a painful stimulus.
Both the controls and the experimental rats were injected into the right hind paw with 0.1 ml of 20% brewer's yeast in sterile saline immediately before the administration of the test compound.
The volume of the inflamed right hind paw was measured 1, 2 and 4 hours after the administration of the test compound.
The analgesic-anti-inflammatory activity was evaluated using an "analgesic index" expressed as a ratio between the sum of the average weights (grams) necessary to provoke a painful stimulus at different times in treated and control animals.

[4] = tested on: rats; assay: Antipyretic activity, fever induced by brewer's yeast in rats (Table V); assay type: in vivo, male Sprague-Dawley rats
Method: as §1
The antipyretic activity was investigated in rats by the method of Niemegeers et al. (see Arzneim.Forsch. 25, 1519, 1975). The rectal temperature was measured immediately before and 4 hours after the subcutaneous injection of 1 ml/100 g body weight of a 15% brewer's yeast suspension in 1% acacia gum.
The test compound was administered orally to groups of 5 different rats per dose 4 hours after the yeast injection. The rectal temperature was measured 0.5, 1, 1.5, 2, 2.5, 3 and 19 hours after treatment.
(§2) Average values of the temperatures obtained in the treated rats were compared with those of control rats.

[5] = tested on: rats; assay: Effect on normal temperature of rats (Table VI); assay type: in vivo, male Sprague-Dawley rats
Method: as §1
6. Effect on normal temperature of rats
The rectal temperature was measured at 30-minute intervals before and after administration of the test compound, that is, at -1.5, -1, -0.5, 0.5, 1, 1.5 and 2 hours, using groups of 10 rats each for each dosage level.
as §2

[6] = tested on: rats; assay: Ulcerogenic effect, gastric lesions in rats (Table VIII); assay type: in vivo, male Sprague-Dawley rats; conditions: single dose; for % animals with gastric lesions: 16 h
Method: as §1
The ulcerogenic effect was determined in rats by the method of Niemegeers et al. (Arzneimittel-Forschung 25, 1537, 1975). A single oral dose was administered to groups of 15 rats fasted for 9 hours before treatment and kept fasting throughout the whole experimental period. The animals were sacrificed 16 hours after treatment; the severity of lesions was scored according to an arbitrary scale ranging from + to ++++. For each group of rats, an ulcerogenic index was calculated according to Pauls et al., (Gastroenterology 8, 774, 1947).

CCCCC(C(=O)O)C(=O)N(Nc1ccccc1)c1ccccc1 (centres unmarked) [B, Calcium salt of butylpropanedioic acid mono(1,2-diphenylhydrazide), reference compound] was tested, and the “% Inhibition” value ([1]; 40 mg/kg oral) was 30%, the “% Inhibition” value ([1]; 80 mg/kg oral) was 32% and the “% Inhibition” value ([1]; 160 mg/kg oral) was 41.6%. It also gave a Reaction time ([2]; 50 mg/kg oral, 0 (before administration)) of 14.00 ± 3.80 s, a Reaction time ([2]; 50 mg/kg oral, 30 min) of 16.50 ± 3.60 s and a Reaction time ([2]; 100 mg/kg oral, 0 (before administration)) of 14.30 ± 2.67 s. It also gave a Reaction time ([2]; 100 mg/kg oral, 90 min) of 17.10 ± 4.48 s, a Reaction time ([2]; 100 mg/kg oral, 120 min) of 16.10 ± 2.56 s and a Reaction time ([2]; 200 mg/kg oral, 0 (before administration)) of 12.90 ± 2.92 s. The “Mean of the weights eliciting painful stimulus” value ([3]; 40 mg/kg oral, 1 h) was 145.0 grams, the “Mean of the weights eliciting painful stimulus” value ([3]; 40 mg/kg oral, 2 h) was 108.8 grams and the “Mean of the weights eliciting painful stimulus” value ([3]; 40 mg/kg oral, 4 h) was 105.0 grams. For the same compound, the “Mean of the weights eliciting painful stimulus” value ([3]; 80 mg/kg oral, 1 h) was 140 grams, the “Mean of the weights eliciting painful stimulus” value ([3]; 80 mg/kg oral, 2 h) was 128.8 grams and the “Mean of the weights eliciting painful stimulus” value ([3]; 80 mg/kg oral, 4 h) was 110.0 grams. The “Mean of the weights eliciting painful stimulus” value ([3]; 160 mg/kg oral, 1 h) was 142.8 grams, the “Mean of the weights eliciting painful stimulus” value ([3]; 160 mg/kg oral, 2 h) was 161.2 grams and the “Mean of the weights eliciting painful stimulus” value ([3]; 160 mg/kg oral, 4 h) was 140.0 grams. It also gave a Rectal temperature ([4]; 40 mg/kg oral, 0 h (4 h after yeast, before treatment)) of 38.08 °C, a Rectal temperature ([4]; 40 mg/kg oral, 0.5 h) of 38.05 °C and a Rectal temperature ([4]; 40 mg/kg oral, 1 h) of 38.20 °C. It also gave a Rectal temperature ([4]; 40 mg/kg oral, 1.5 h) of 38.09 °C, a Rectal temperature ([4]; 40 mg/kg oral, 2 h) of 38.17 °C and a Rectal temperature ([4]; 40 mg/kg oral, 2.5 h) of 38.45 °C. The Rectal temperature ([4]; 40 mg/kg oral, 3 h) was 38.01 °C, the Rectal temperature ([4]; 40 mg/kg oral, 19 h) was 37.28 °C and the Rectal temperature ([4]; 40 mg/kg oral, -4 h (before yeast)) was 36.74 °C. It also gave a Rectal temperature ([4]; 80 mg/kg oral, 0 h (4 h after yeast, before treatment)) of 38.02 °C, a Rectal temperature ([4]; 80 mg/kg oral, 0.5 h) of 37.10 °C and a Rectal temperature ([4]; 80 mg/kg oral, 1 h) of 37.38 °C. The Rectal temperature ([4]; 80 mg/kg oral, 1.5 h) was 37.48 °C, the Rectal temperature ([4]; 80 mg/kg oral, 2 h) was 37.65 °C and the Rectal temperature ([4]; 80 mg/kg oral, 2.5 h) was 37.96 °C. For the same compound, the Rectal temperature ([4]; 80 mg/kg oral, 3 h) was 37.80 °C, the Rectal temperature ([4]; 80 mg/kg oral, 19 h) was 37.44 °C and the Rectal temperature ([4]; 80 mg/kg oral, -4 h (before yeast)) was 36.96 °C. It also gave a Rectal temperature ([4]; 160 mg/kg oral, 0 h (4 h after yeast, before treatment)) of 38.52 °C, a Rectal temperature ([4]; 160 mg/kg oral, 0.5 h) of 37.89 °C and a Rectal temperature ([4]; 160 mg/kg oral, 1 h) of 37.81 °C. For the same compound, the Rectal temperature ([4]; 160 mg/kg oral, 1.5 h) was 37.90 °C, the Rectal temperature ([4]; 160 mg/kg oral, 2 h) was 37.34 °C and the Rectal temperature ([4]; 160 mg/kg oral, 2.5 h) was 37.50 °C. For the same compound, the Rectal temperature ([4]; 160 mg/kg oral, 3 h) was 37.41 °C, the Rectal temperature ([4]; 160 mg/kg oral, 19 h) was 36.75 °C and the Rectal temperature ([4]; 160 mg/kg oral, -4 h (before yeast)) was 36.06 °C. For the same compound, the “Rectal temperature (normal rats)” value ([5]; 40 mg/kg oral, 0.5 h) was 36.02 °C, the “Rectal temperature (normal rats)” value ([5]; 40 mg/kg oral, 1 h) was 36.13 °C and the “Rectal temperature (normal rats)” value ([5]; 40 mg/kg oral, 1.5 h) was 36.10 °C. For the same compound, the “Rectal temperature (normal rats)” value ([5]; 40 mg/kg oral, 2 h) was 36.20 °C, the “Rectal temperature (normal rats)” value ([5]; 40 mg/kg oral, -0.5 h (before administration)) was 36.33 °C and the “Rectal temperature (normal rats)” value ([5]; 40 mg/kg oral, -1 h (before administration)) was 36.62 °C. For the same compound, the “Rectal temperature (normal rats)” value ([5]; 40 mg/kg oral, -1.5 h (before administration)) was 37.15 °C, the “Rectal temperature (normal rats)” value ([5]; 80 mg/kg oral, 0.5 h) was 36.14 °C and the “Rectal temperature (normal rats)” value ([5]; 80 mg/kg oral, 1 h) was 36.27 °C. For the same compound, the “Rectal temperature (normal rats)” value ([5]; 80 mg/kg oral, 1.5 h) was 36.31 °C, the “Rectal temperature (normal rats)” value ([5]; 80 mg/kg oral, 2 h) was 36.47 °C and the “Rectal temperature (normal rats)” value ([5]; 80 mg/kg oral, -0.5 h (before administration)) was 36.34 °C. For the same compound, the “Rectal temperature (normal rats)” value ([5]; 80 mg/kg oral, -1 h (before administration)) was 36.51 °C, the “Rectal temperature (normal rats)” value ([5]; 80 mg/kg oral, -1.5 h (before administration)) was 36.69 °C and the “Rectal temperature (normal rats)” value ([5]; 160 mg/kg oral, 0.5 h) was 35.62 °C. For the same compound, the “Rectal temperature (normal rats)” value ([5]; 160 mg/kg oral, 1 h) was 35.70 °C, the “Rectal temperature (normal rats)” value ([5]; 160 mg/kg oral, 1.5 h) was 35.92 °C and the “Rectal temperature (normal rats)” value ([5]; 160 mg/kg oral, 2 h) was 36.24 °C. The “Rectal temperature (normal rats)” value ([5]; 160 mg/kg oral, -0.5 h (before administration)) was 36.00 °C, the “Rectal temperature (normal rats)” value ([5]; 160 mg/kg oral, -1 h (before administration)) was 36.52 °C and the “Rectal temperature (normal rats)” value ([5]; 160 mg/kg oral, -1.5 h (before administration)) was 36.50 °C. The “Body weight, mean ± standard deviation” value ([6]; 40 mg/kg oral) was 194.67 ± 7.43 grams, the “% animals with gastric lesions” value ([6]; 40 mg/kg oral) was 0% and the “Body weight, mean ± standard deviation” value ([6]; 80 mg/kg oral) was 190.67 ± 8.84 grams. For the same compound, the “% animals with gastric lesions” value ([6]; 80 mg/kg oral) was 0%, the “Body weight, mean ± standard deviation” value ([6]; 160 mg/kg oral) was 198.00 ± 11.46 grams and the “% animals with gastric lesions” value ([6]; 160 mg/kg oral) was 6.66%. For the same compound, the “Body weight, mean ± standard deviation” value ([6]; 320 mg/kg oral) was 186.67 ± 7.24 grams and the “% animals with gastric lesions” value ([6]; 320 mg/kg oral) was 64.28%.
